Reference: ChEMBL document CHEMBL4052604, “Englerins: A Comprehensive Review” (J Nat Prod, 2017)

Legend:
A498 [1] = test: Cytotoxicity against human A498 cells assessed as reduction in cell viability; format: functional, cell-based
A498 [2] = test: Antiproliferative activity against human A498 cells after 48 hrs by sulphorhodamine B assay; format: functional, cell-based; conditions: A498, 48 h

| SMILES | IC50 (A498 [1]) [µM] | IC50 (A498 [2]) [µM] |
| --- | --- | --- |
| CC1(C)C2C[C@H](OC(=O)/C=C/c3ccccc3)C1(C)C[C@H]2OC(=O)CO (stereo not given in full) | 35 | – |
| CC(C)[C@@]12C[C@@H](OC(=O)CO)[C@@](C)(O1)[C@@H]1CC[C@@H](C)[C@H]1[C@@H]2OC(=O)c1ccc(Cl)cc1Cl | 0.28 | – |
| CC[C@@]12C[C@@H](OC(=O)CO)[C@@](C)(O1)[C@@H]1CC[C@@H](C)[C@H]1[C@@H]2OC(=O)/C=C/c1ccccc1 | 0.95 | – |
| C[C@@H]1CC[C@@H]2[C@@H]1[C@H](OC(=O)/C=C/c1ccccc1)[C@]1(C)C[C@@H](OC(=O)CO)[C@@]2(C)O1 | 4.6 | – |
| CC(C)[C@@]12C[C@@H](C(=O)OCCO)[C@@](C)(O1)[C@@H]1CC[C@@H](C)[C@H]1[C@@H]2OC(=O)/C=C/c1ccccc1 | – | 0.048 |
